Data taken from ChEMBL document CHEMBL1140446, “Designed multiple ligands. An emerging drug discovery paradigm” (J Med Chem, 2005).

How the values were obtained:
Substance-P receptor [1] = molecular target: T1, Substance-P receptor (Homo sapiens, UniProt P25103); assay: Negative logarithm causing 50% receptor occupancy against tachykinin receptor 1
[2] = molecular target: T2, Sodium-dependent serotonin transporter (Homo sapiens, UniProt P31645); assay: Negative logarithm causing 50% receptor occupancy against serotonin transporter
T2 sequence (P31645 whole entry): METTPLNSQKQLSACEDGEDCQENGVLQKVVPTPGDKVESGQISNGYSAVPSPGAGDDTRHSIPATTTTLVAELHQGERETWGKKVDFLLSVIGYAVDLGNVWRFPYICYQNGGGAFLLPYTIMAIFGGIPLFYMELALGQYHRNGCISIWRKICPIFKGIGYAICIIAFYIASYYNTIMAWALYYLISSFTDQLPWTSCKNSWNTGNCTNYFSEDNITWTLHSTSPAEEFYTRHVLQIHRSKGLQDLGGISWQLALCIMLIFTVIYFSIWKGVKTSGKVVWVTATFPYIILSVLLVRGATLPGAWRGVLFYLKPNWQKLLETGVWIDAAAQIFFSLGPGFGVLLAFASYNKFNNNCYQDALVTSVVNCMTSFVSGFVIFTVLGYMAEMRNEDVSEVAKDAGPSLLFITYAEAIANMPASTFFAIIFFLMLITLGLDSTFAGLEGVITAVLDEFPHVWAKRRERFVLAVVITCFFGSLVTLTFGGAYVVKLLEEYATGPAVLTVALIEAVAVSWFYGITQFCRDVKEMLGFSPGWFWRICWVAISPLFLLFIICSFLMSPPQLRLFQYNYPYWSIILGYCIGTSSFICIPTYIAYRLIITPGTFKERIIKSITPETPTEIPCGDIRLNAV

[3] = molecular target: T2, Sodium-dependent serotonin transporter
Description: Inhibition constant against serotonin transporter

[4] = molecular target: Adrenergic receptor alpha-1 (Homo sapiens) (UniProt P35348+P25100+P35368); assay: Inhibition constant against alpha adrenergic receptor at 0.1 uM concentration; type: protein assay
[5] = molecular target: Platelet-activating factor receptor (Homo sapiens, UniProt P25105)
Description: Inhibitory concentration against platelet activating factor receptor

[6] = molecular target: Cysteinyl leukotriene receptor 1 (Cavia porcellus, UniProt Q2NNR5); assay: Inhibitory concentration against LTD4-induced contraction of guinea pig ileum at 10 uM concentration; type: tissue-based
Histamine H1 receptor [7] = molecular target: T3, Histamine H1 receptor (Homo sapiens, UniProt P35367)
T3 sequence (P35367 whole entry): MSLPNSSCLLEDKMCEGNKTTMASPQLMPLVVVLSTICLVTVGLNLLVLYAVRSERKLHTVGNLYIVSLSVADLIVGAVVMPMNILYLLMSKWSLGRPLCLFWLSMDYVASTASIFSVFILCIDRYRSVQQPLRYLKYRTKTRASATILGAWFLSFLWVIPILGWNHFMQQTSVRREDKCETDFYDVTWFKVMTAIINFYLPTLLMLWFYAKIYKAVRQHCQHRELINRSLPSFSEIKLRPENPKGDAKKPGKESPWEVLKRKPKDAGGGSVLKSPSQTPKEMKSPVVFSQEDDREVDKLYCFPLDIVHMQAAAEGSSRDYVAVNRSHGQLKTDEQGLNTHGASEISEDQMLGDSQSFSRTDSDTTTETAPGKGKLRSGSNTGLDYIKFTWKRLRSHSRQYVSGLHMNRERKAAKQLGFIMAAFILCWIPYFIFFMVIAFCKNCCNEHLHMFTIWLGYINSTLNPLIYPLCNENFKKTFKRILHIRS
Description: Dissociation constant against histamine H1 receptor

[8] = molecular target: T4, Angiotensin-converting enzyme (Homo sapiens, UniProt P12821); assay: Inhibitory concentration against angiotensin I converting enzyme
T4 sequence (P12821 whole entry): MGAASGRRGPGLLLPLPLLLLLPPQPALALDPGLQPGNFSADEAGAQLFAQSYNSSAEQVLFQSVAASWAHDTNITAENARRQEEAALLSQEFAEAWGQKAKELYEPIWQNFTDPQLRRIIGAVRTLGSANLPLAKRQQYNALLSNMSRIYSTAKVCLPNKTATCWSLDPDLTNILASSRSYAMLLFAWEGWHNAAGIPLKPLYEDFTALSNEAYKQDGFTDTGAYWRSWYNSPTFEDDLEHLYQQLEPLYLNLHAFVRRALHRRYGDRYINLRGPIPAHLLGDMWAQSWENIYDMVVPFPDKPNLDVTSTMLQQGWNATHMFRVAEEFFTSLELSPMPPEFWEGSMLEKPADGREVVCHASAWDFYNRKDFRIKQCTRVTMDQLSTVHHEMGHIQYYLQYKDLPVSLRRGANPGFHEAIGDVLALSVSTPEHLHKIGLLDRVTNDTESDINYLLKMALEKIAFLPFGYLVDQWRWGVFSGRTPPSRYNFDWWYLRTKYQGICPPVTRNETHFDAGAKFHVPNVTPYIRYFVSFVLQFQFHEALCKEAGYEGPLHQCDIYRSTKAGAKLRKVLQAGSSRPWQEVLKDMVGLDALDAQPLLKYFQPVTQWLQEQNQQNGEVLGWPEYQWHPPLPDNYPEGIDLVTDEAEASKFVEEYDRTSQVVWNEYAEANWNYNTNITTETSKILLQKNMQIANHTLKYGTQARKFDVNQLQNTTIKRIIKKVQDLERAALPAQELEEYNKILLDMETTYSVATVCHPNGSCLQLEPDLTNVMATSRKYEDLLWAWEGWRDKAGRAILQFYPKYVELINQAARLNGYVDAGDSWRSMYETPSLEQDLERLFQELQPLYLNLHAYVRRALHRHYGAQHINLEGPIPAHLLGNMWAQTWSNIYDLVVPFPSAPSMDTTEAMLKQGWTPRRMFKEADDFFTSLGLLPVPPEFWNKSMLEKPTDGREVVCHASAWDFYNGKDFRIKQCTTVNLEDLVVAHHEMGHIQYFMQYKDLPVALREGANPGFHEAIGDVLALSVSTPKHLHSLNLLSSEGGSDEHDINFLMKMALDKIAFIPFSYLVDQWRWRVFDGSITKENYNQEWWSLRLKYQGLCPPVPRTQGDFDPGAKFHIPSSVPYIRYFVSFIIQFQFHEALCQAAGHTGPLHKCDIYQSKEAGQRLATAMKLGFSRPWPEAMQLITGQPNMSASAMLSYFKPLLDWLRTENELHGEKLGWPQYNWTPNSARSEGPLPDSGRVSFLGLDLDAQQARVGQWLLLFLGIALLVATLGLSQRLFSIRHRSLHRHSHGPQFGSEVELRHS

Neprilysin [9] = molecular target: T5, Neprilysin (Homo sapiens, UniProt P08473)
T5 sequence (P08473 whole entry): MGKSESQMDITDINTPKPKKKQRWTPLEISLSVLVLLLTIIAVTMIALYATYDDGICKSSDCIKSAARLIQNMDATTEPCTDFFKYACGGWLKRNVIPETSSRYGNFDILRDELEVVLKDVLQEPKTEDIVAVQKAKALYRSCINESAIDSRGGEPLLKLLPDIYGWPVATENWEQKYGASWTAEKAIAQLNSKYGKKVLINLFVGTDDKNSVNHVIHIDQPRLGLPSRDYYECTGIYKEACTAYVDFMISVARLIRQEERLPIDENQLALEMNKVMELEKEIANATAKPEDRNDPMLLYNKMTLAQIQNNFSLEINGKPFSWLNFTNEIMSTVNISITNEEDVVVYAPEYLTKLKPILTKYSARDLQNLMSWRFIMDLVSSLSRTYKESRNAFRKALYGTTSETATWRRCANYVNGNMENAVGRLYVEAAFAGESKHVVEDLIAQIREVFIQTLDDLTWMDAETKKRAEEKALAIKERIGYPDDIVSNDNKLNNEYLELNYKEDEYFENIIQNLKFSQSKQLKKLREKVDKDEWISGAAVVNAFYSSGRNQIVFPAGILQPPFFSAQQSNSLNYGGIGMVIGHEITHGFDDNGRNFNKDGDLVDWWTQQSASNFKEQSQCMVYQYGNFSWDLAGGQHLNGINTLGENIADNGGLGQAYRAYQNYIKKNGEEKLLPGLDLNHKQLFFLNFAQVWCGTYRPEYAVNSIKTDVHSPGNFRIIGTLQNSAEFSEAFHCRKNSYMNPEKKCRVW
Description: Inhibitory concentration against neutral endopeptidase

[10] = molecular target: T2, Sodium-dependent serotonin transporter; remark: listed apart in the source
Description: Inhibitory concentration against serotonin transporter

[11] = molecular target: T6, Adrenergic receptor alpha-1 (Homo sapiens, UniProt P35348+P25100+P35368); assay: Inhibition constant against alpha adrenergic receptor; type: protein assay
T6 sequence (P35348 whole entry): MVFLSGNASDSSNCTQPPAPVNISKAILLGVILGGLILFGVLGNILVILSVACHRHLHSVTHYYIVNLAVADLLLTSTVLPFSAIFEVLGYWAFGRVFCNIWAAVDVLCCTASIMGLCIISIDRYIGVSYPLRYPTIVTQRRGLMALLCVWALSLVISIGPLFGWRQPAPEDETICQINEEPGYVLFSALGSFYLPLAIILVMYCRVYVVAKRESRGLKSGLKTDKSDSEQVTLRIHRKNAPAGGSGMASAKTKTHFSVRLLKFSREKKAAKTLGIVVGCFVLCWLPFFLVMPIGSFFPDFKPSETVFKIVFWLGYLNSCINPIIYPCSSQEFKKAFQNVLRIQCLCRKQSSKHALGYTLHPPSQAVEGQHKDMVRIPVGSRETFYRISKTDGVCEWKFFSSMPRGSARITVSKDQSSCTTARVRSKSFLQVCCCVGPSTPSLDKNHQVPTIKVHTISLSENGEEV
T6 sequence (P25100 whole entry): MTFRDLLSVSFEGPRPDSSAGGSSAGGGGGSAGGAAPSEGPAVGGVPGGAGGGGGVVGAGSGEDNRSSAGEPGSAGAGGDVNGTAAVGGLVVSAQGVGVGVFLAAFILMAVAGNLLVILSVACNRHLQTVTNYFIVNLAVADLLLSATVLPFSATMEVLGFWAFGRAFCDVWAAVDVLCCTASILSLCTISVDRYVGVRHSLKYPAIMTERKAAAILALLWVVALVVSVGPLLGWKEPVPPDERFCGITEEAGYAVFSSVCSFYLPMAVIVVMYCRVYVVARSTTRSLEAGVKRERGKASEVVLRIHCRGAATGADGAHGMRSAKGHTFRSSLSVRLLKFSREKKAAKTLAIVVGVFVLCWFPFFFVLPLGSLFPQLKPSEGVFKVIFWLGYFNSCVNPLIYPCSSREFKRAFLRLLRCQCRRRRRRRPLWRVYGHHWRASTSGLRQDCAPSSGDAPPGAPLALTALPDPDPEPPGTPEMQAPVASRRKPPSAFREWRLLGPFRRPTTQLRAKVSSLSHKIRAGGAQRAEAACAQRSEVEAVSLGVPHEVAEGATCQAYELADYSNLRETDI
T6 sequence (P35368 whole entry): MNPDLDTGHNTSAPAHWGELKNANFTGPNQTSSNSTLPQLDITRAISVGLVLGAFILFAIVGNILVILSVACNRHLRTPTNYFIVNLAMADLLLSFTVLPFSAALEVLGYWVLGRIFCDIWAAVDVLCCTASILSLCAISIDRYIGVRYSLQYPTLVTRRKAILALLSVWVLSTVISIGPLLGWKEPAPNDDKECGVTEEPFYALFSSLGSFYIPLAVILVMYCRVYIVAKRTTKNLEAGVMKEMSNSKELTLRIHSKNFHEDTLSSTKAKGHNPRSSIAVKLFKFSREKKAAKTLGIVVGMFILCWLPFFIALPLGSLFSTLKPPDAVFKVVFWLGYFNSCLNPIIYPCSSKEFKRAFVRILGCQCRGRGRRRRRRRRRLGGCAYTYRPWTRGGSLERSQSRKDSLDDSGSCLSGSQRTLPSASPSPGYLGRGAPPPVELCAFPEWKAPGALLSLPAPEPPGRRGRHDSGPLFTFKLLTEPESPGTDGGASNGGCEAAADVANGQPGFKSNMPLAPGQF

D(2) dopamine receptor [12] = molecular target: T7, D(2) dopamine receptor (Homo sapiens, UniProt P14416)
T7 sequence (P14416 whole entry): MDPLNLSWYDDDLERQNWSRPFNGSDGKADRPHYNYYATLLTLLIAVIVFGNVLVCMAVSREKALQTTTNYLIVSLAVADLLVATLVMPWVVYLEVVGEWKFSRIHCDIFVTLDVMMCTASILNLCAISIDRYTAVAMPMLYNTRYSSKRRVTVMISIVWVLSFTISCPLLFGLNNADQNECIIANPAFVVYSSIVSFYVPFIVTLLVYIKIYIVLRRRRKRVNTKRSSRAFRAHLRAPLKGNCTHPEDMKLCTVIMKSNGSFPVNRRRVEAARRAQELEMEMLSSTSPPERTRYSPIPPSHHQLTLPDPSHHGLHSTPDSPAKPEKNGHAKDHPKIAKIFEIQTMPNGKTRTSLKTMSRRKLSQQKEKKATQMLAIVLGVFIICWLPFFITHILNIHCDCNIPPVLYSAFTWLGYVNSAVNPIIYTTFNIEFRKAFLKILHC
Description: Inhibition constant against dopamine receptor D2

Acetylcholinesterase = Acetylcholinesterase (Homo sapiens, UniProt P22303)
Description: Inhibitory concentration against acetylcholinesterase

Histamine H1 receptor [13] = molecular target: T3, Histamine H1 receptor; remark: listed apart in the source
Description: Inhibition constant against histamine H1 receptor

Histamine H3 receptor = Histamine H3 receptor (Homo sapiens, UniProt Q9Y5N1); assay: Inhibition constant against histamine H3 receptor
[14] = molecular target: T8, Gastrin/cholecystokinin type B receptor (Homo sapiens, UniProt P32239); assay: Inhibitory concentration against gastrin receptor
T8 sequence (P32239 whole entry): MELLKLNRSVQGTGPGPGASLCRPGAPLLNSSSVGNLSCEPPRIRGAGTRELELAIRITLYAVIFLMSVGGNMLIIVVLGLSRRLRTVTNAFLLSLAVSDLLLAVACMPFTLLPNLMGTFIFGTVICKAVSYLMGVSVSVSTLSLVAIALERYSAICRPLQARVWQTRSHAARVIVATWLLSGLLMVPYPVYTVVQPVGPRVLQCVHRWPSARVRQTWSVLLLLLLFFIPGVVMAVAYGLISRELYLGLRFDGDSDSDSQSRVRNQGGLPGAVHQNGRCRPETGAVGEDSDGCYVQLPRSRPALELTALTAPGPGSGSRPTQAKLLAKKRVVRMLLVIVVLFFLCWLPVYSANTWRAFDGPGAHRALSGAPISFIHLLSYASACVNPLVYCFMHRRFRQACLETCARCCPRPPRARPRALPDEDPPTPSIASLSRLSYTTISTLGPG

[15] = molecular target: T8, Gastrin/cholecystokinin type B receptor; assay: Inhibitory concentration against Cholecystokinin B receptor
Histamine H2 receptor = Histamine H2 receptor (Homo sapiens, UniProt P25021); assay: Negative logarithm of the drug concentration against H2 histamine receptor; conditions: read-out: pA2 (converted)
[16] = molecular target: Sodium-dependent dopamine transporter (Homo sapiens, UniProt Q01959)
Description: Inhibitory concentration against dopamine transporter

[17] = Oral bioavailability; type: ADME, organism-based; conditions: eutheria, in vivo
[18] = molecular target: 5-hydroxytryptamine receptor 1D (Homo sapiens, UniProt P28221); assay: Inhibition constant against 5-hydroxytryptamine 1D receptor
[19] = molecular target: 5-hydroxytryptamine receptor 1B (Homo sapiens, UniProt P28222)
Description: Inhibition constant against 5-HT 1B receptor

Procathepsin L = Procathepsin L (Homo sapiens, UniProt P07711); assay: Inhibitory concentration against cathepsin L
[20] = molecular target: 5-hydroxytryptamine receptor 2A (Homo sapiens, UniProt P28223)
Chain of 5-hydroxytryptamine receptor 2A (Homo sapiens, UniProt P28223) (P28223 whole entry): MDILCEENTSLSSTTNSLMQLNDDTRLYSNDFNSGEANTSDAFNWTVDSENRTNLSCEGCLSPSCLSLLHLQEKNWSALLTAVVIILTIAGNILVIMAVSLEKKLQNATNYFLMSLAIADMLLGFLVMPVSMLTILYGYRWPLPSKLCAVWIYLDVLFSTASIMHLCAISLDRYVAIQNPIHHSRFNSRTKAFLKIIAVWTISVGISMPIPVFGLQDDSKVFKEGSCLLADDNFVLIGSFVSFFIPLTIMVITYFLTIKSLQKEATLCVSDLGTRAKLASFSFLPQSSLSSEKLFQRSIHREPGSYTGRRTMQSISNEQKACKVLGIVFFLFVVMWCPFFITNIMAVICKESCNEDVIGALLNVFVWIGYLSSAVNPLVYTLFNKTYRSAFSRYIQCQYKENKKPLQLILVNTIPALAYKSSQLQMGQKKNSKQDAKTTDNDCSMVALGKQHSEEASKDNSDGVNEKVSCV
Description: Inhibitory concentration against 5-hydroxytryptamine 2 receptor

D(2) dopamine receptor [21] = molecular target: T7, D(2) dopamine receptor; remark: listed apart in the source
Description: Inhibitory concentration against dopamine receptor D2

Substance-P receptor [22] = molecular target: T1, Substance-P receptor
Description: Inhibitory concentration against neurokinin NK1 receptor

[23] = molecular target: Tyrosine-protein kinase ABL1 (Homo sapiens, UniProt P00519); assay: Inhibitory concentration against v-Abl tyrosine kinase
[24] = molecular target: T9, 5-hydroxytryptamine receptor 1A (Homo sapiens, UniProt P08908)
T9 sequence (P08908 whole entry): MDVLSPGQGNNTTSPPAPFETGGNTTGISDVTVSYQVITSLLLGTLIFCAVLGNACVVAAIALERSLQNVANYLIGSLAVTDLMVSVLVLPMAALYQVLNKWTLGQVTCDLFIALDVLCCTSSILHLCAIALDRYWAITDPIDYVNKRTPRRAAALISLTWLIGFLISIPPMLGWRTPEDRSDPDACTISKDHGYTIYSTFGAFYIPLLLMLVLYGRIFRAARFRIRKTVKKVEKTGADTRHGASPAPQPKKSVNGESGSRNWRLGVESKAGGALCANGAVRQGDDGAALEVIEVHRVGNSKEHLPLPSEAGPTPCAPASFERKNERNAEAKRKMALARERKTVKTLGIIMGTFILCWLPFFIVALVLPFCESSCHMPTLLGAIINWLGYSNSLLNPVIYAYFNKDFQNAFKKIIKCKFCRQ
Description: Inhibition constant against 5-hydroxytryptamine 1A receptor

[25] = molecular target: 5-hydroxytryptamine receptor 2A (Rattus norvegicus, UniProt P14842); assay: Inhibition constant against 5-Hydroxytryptamine 2 receptor in olfactory bulbectomized rat
Histamine H1 receptor [26] = molecular target: T3, Histamine H1 receptor; remark: listed apart in the source
Description: Inhibitory concentration against histamine H1 receptor

Neprilysin [27] = molecular target: T5, Neprilysin; assay: Inhibition constant against neutral endopeptidase
[28] = molecular target: T4, Angiotensin-converting enzyme; assay: Inhibition constant against angiotensin I converting enzyme
[29] = molecular target: Endothelin-converting enzyme 1 (Homo sapiens, UniProt P42892); assay: Inhibition constant against endothelin converting enzyme 1
[30] = molecular target: Beta-2 adrenergic receptor (Homo sapiens, UniProt P07550); assay: Negative logarithm causing 50% receptor occupancy against beta-2 adrenergic receptor
[31] = molecular target: T9, 5-hydroxytryptamine receptor 1A; assay: Inhibitory concentration against 5-hydroxytryptamine 1A receptor
[32] = molecular target: T6, Adrenergic receptor alpha-1
Description: Inhibitory concentration against alpha adrenergic receptor

Substance-P receptor [33] = molecular target: T1, Substance-P receptor; remark: listed apart in the source
Description: Binding affinity towards tachykinin receptor 1

Substance-K receptor = molecular target: T10, Substance-K receptor (Homo sapiens, UniProt P21452); assay: Binding affinity towards tachykinin receptor 2
T10 sequence (P21452 whole entry): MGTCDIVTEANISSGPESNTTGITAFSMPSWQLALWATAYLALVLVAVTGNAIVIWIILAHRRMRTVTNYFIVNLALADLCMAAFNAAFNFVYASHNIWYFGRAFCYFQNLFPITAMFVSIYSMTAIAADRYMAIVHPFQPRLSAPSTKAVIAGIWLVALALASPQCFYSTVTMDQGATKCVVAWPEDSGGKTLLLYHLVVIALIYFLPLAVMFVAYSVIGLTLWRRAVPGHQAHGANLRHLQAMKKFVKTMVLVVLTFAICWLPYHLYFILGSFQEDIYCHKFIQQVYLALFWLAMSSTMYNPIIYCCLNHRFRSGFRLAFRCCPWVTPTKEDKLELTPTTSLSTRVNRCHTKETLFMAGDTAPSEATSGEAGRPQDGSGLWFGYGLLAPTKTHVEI

T1 sequence (P25103 whole entry): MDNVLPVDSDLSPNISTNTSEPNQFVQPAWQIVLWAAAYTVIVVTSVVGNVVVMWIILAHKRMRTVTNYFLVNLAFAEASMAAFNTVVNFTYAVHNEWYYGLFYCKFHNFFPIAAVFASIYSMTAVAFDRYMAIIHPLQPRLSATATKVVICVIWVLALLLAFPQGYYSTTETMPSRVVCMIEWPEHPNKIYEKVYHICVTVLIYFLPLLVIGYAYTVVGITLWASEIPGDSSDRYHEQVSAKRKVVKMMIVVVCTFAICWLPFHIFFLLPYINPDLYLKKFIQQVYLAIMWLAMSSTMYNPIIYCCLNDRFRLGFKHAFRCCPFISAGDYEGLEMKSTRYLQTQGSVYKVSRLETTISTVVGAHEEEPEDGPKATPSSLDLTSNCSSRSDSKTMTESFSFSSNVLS

O=C(CCc1cc(C(F)(F)F)cc(C(F)(F)F)c1)N(c1ccc(F)cc1)C1CCNCC1
Ki (Substance-P receptor [1]): 200 nM
Ki [2]: 251 nM

Fc1cc2c(c(OCCNCCCc3c[nH]c4ccc(F)cc34)c1)OCCC2
Ki [3]: 0.5 nM
inhibition [4]: 79%

Cc1cncc(CN2CCC(=C3c4ccc(Cl)cc4CCc4cccnc43)CC2)c1 [RUPATADINE]
IC50 [5]: 3700 nM

O=C(N[C@H](CN1CCC(OC2c3ccccc3CCc3ccccc32)CC1)C(=O)O)OCc1ccccc1
IC50 [6]: 1550 nM
Kd (Histamine H1 receptor [7]): 410 nM

O=C(N[C@H]1Cc2ccccc2C2CCC[C@H](C(=O)O)N2C1=O)[C@H](S)Cc1ccccc1 (stereo partly drawn)
IC50 [8]: 0.11 nM
IC50 (Neprilysin [9]): 0.08 nM

NC(=O)c1ccc2c(c1)CCOC2CCN1CC=C(c2c[nH]c3cc(F)ccc23)CC1 (stereo not drawn)
IC50 [10]: 0.11 nM
Ki [11]: 16 nM
Ki (D(2) dopamine receptor [12]): 4.7 nM

CN[C@@H](CCOc1ccc([N+](=O)[O-])cc1)c1ccc(OC(=O)N(C)C)cc1
IC50 [10]: 42 nM
IC50 (Acetylcholinesterase): 101 nM

O=C(O)CCNC(=O)C(CS)Cc1ccccc1 (stereo not drawn)
IC50 [8]: 32000 nM
IC50 (Neprilysin [9]): 9.4 nM

CN(CCCCc1c[nH]cn1)CCC(c1ccc(Cl)cc1)c1ccccn1 (stereo not drawn)
Ki (Histamine H1 receptor [13]): 7 nM
Ki (Histamine H3 receptor): 15 nM

CN1C(=O)[C@H](NC(=O)Nc2ccc(CC(=O)NCCC(=O)NCCCOc3cccc(CN4CCCCC4)c3)cc2)N=C(c2ccccc2)c2ccccc21
IC50 [14]: 136 nM
IC50 [15]: 290 nM
Kb (Histamine H2 receptor): 251 nM

CN(C)C[C@@H]1C2CCC(CC2)[C@@H]1c1cccc(Cl)c1
IC50 [10]: 270 nM
IC50 [16]: 28 nM

OC(CCc1ccccc1)CN1CCC2(CC1)OCc1c2ccc2ccccc12 (stereo not drawn)
bioavailability [17]: 65%
Ki [3]: 10 nM

C[C@@H]1CN(c2cccc3cc(F)ccc23)CCN1CCC1OCCc2c1sc(C(N)=O)c2Cl (stereo partly drawn)
IC50 [10]: 2.1 nM
Ki [11]: 140 nM
Ki [18]: 45 nM
Ki [19]: > 1000 nM
Ki (D(2) dopamine receptor [12]): 291 nM

CC(C)C[C@H](CC(=O)NO)C(=O)N[C@@H](Cc1ccccc1)C(=O)N[C@@H](C)C=O
IC50 (Procathepsin L): 25 nM

c1ccc2c(N3CCNCC3)cccc2c1
IC50 [20]: 62 nM
IC50 (D(2) dopamine receptor [21]): > 1000 nM

COc1ccc(C2(CCN3CCC(C(=O)c4nc5ccccc5n4Cc4ccc(F)cc4)CC3)CCN(C(=O)c3cc(OC)c(OC)c(OC)c3)C2)cc1OC (stereo not drawn)
IC50 (Substance-P receptor [22]): 31 nM

O=C(Nc1cccc(Nc2nccc(-c3cccnc3)n2)c1)c1ccccc1
IC50 [23]: 400 nM

COc1cccc2c1CCC[C@H]2CN(C)CCc1ccc2ccoc2c1
Ki [24]: 2 nM
Ki [25]: 144 nM

CC(=O)N1CCC(=C2c3ccc(Cl)cc3CCc3cccnc32)CC1 [SCH-37370]
IC50 (Histamine H1 receptor [26]): 100 nM
IC50 [5]: 840 nM

CN1CCC(=C2c3ccccc3C=Cc3ccccc32)CC1 [CYPROHEPTADINE]
IC50 [6]: > 100000 nM

COc1ccc2c(c1)CC[C@H]2[C@@H](CS)C(=O)N[C@@H](Cc1c[nH]c2ccccc12)C(=O)O
Ki (Neprilysin [27]): 24 nM
Ki [28]: 1.3 nM
Ki [29]: 10 nM

Cc1ccc2c(OCCN3CCC(Cc4ccc5c(c4)NC(=O)CO5)CC3)cccc2n1
Ki [2]: 6.31 nM
Log Ki [30]: < -6.3

O=C1Cc2cc(CCN3CCN(c4cccc5ccccc45)CC3)ccc2N1
IC50 [31]: 5 nM
IC50 [20]: 20 nM
IC50 [32]: 45 nM
IC50 (D(2) dopamine receptor [21]): 44 nM

CN(C(=O)c1cc(C(F)(F)F)cc(C(F)(F)F)c1)[C@@H](/C=C/C(=O)NCCN1CCCCC1)Cc1ccc(Cl)cc1
IC50 (Substance-P receptor [33]): 10 nM
IC50 (Substance-K receptor): 49 nM

COc1cc(C(=O)N2CC[C@](CCN3CCC(C(N)=O)(c4ccccc4)CC3)(c3ccc(Cl)c(Cl)c3)C2)cc(OC)c1OC
IC50 (Substance-P receptor [22]): > 10000 nM
IC50 (Histamine H1 receptor [26]): 3 nM
